Experiments:
ERK5 [1] = molecular target: T1, ERK5 (Homo sapiens, UniProt Q13164); experiment: ERK5 kinase activity in vitro assay (32P-ATP, PIMtide substrate); format: biochemical; parameters: hexahistidine (His6) (N); made in house; host or cells: Spodoptera frugiperda 21 cells (baculovirus, Bac-to-Bac); conditions: for IC50: in vitro assay, recombinant active ERK5, read-out: Enzymatic IC50 (ERK5)
Experimental: pFastBAC vector encoding N-terminal hexahistidine-tagged human ERK5 and HA-tagged human MEK5-DD (constitutively active) were used to generate recombinant baculovirus using the Bac-to-Bac system (Invitrogen). […] His-tagged ERK5 was purified as described for His-tagged BRSK1[33], using 5 mL Ni-NTA-agarose resin (Qiagen) followed by gel filtration chromatography on Superdex 200HR column on an AKTA system (GE Healthcare).
Assays were carried out for 20 min at 30 °C, terminated by applying the reaction mixture onto p81 paper and the incorporated radioactivity measured as described previously.

ERK5 [2] = molecular target: T1, ERK5; experiment: ERK5 autophosphorylation assay (EGF-stimulated, mobility shift immunoblot); format: cell-based; parameters: endogenous in cells; host or cells: HeLa; conditions: inhibition of EGF-stimulated autophosphorylation of ERK5 in HeLa cells; read-out: Cellular EC50 (ERK5)
Excerpt: Proteins from total cell lysates were resolved by 6% sodium dodecyl sulfate (SDS)-poly-acrylamide gel electrophoresis (PAGE), transferred to nitrocellulose membrane, blocked in 5% nonfat milk, and blotted with anti-ERK5 antibody.

T1 sequence (Q13164 whole entry): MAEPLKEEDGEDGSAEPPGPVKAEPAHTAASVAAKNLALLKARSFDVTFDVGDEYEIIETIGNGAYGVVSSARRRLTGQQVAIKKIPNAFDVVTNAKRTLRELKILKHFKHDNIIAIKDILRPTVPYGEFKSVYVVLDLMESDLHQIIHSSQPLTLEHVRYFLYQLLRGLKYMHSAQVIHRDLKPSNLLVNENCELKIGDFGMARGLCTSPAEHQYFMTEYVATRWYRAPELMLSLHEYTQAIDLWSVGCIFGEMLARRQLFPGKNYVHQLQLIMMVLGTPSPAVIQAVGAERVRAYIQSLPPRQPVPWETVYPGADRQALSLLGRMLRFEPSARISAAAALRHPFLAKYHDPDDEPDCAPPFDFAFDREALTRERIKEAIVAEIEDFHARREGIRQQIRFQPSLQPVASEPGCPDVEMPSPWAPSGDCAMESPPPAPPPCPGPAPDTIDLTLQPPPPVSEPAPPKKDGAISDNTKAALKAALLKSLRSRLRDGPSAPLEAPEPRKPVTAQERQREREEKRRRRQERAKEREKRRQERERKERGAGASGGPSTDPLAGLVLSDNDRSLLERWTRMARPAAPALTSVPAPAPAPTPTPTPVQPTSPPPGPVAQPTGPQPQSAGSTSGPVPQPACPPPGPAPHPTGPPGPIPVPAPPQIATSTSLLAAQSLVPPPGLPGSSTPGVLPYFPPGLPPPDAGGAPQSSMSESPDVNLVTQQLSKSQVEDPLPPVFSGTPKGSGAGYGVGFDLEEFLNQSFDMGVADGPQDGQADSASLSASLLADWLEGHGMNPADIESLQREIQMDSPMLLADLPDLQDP

Row | SMILES | IC50 (ERK5 [1]) [nM] | EC50 (ERK5 [2]) [nM] | fold decrease in activity for ERK5 (ERK5 [1]; relative to compound 5) [fold]
1 | COc1cc(N2CCC(O)CC2)ccc1Nc1ncc2c(n1)N(C)c1ccccc1C(=O)N2C [Compound 6] | 297 ± 14 | 240 ± 40 | –
2 | COc1cc(N2CCOCC2)ccc1Nc1ncc2c(n1)N(C)c1ccccc1C(=O)N2C [Compound 7] | 233 ± 19 | 260 ± 30 | –
3 | CN1C(=O)c2ccccc2N(C)c2nc(Nc3ccc(S(N)(=O)=O)cc3)ncc21 [Compound 8] | 171 ± 16 | 310 ± 60 | –
4 | CN1C(=O)c2ccccc2N(C)c2nc(NCCc3cnc[nH]3)ncc21 [Compound 9] | 1720 ± 221 | 4680 ± 520 | –
5 | CC(C)Oc1cc(N2CCC(O)CC2)ccc1Nc1ncc2c(n1)N(C)c1ccccc1C(=O)N2C [Compound 12] | 1530 ± 172 | > 500 | –
6 | CCN1c2ccccc2C(=O)N(C)c2cnc(Nc3ccc(N4CCN(C)CC4)cc3OC)nc21 [Compound 17] | 66 ± 7 | 200 ± 40 | –
7 | COc1cc(N2CCN(C)CC2)ccc1Nc1ncc2c(n1)N(C(C)C)c1ccccc1C(=O)N2C [Compound 18] | 98 ± 12 | 230 ± 30 | –
8 | COc1cc(N2CCN(C)CC2)ccc1Nc1ncc2c(n1)N(C1CCCC1)c1ccccc1C(=O)N2C [Compound 19] | 146 ± 18 | 200 ± 40 | –
9 | COc1cc(N2CCN(C)CC2)ccc1Nc1ncc2c(n1)N(C)c1cc(Cl)ccc1C(=O)N2C [Compound 21] | 1130 ± 160 | 1240 ± 240 | –

The remaining lines, values ahead:

Row | IC50 (ERK5 [1]) [nM] | EC50 (ERK5 [2]) [nM] | fold decrease in activity for ERK5 (ERK5 [1]; relative to compound 5) [fold] | SMILES
10 | 1250 ± 151 | 4110 ± 590 | – | CN1CCC(Nc2ncc3c(n2)N(C)c2ccccc2C(=O)N3C)CC1 [Compound 10]
11 | 140 ± 9 | 240 ± 30 | – | COc1cc(NCCN(C)C)ccc1Nc1ncc2c(n1)N(C)c1ccccc1C(=O)N2C [Compound 13]
12 | 338 ± 18 | 320 ± 50 | – | COc1cc(C(=O)NC2CCN(C)CC2)ccc1Nc1ncc2c(n1)N(C)c1ccccc1C(=O)N2C [Compound 14]
13 | 1450 ± 210 | > 1000 | 4 | COc1cc(N2CCN(C)CC2)ccc1Nc1ncc2c(n1)N(C)c1ccccc1C(=O)N2 [Compound 16]
14 | 873 ± 60 | 1320 ± 220 | – | COc1cc(N2CCN(C)CC2)ccc1Nc1ncc2c(n1)N(C)c1ccc(F)cc1C(=O)N2C [Compound 20]
15 | 5090 ± 52 | 11400 ± 2040 | – | COc1cc(N2CCN(C)CC2)ccc1Nc1ncc2c(n1)N(C)c1ccc(Cl)cc1C(=O)N2C [Compound 22]
16 | 2460 ± 260 | 3100 ± 620 | – | COc1cc(N2CCN(C)CC2)ccc1Nc1ncc2c(n1)N(C)c1cc(C)ccc1C(=O)N2C [Compound 23]
